Columns and labels:
[1] = test system: desiccated Salmonella enterica subsp. enterica serovar Enteritidis phage type 30 (ATCC BAA-1045); test: Antimicrobial assay against cells desiccated on stainless-steel coupons; assay type: cell-based; conditions: 200 mM organic acid, 30-min contact; for MLR ± SD, W/O emulsion, 22° C. / MLR ± SD, W/O emulsion, 45° C.: 1% v/v water; for MLR ± SD, W/O emulsion, 22° C. / MLR ± SD, W/O emulsion, 45° C. / MLR ± SD, W/O emulsion with glycerol, 22° C. / MLR ± SD, W/O emulsion with glycerol, 45° C.: 75% ERH; for MLR ± SD, Oil with PGPR, 22° C. / MLR ± SD, Oil with PGPR, 45° C.: cells desiccated to 75% ERH
[2] = Water activity (aw) by Dewpoint aw meter; assay type: physicochemical; conditions: 200 mM organic acid

| Structure (SMILES) | MLR ± SD, W/O emulsion, 22° C. [1] | MLR ± SD, W/O emulsion, 45° C. [1] | MLR ± SD, W/O emulsion with glycerol, 22° C. [1] | MLR ± SD, W/O emulsion with glycerol, 45° C. [1] | MLR ± SD, Oil with PGPR, 22° C. [1] | MLR ± SD, Oil with PGPR, 45° C. [1] | MLR ± SD, Oil with PGPR, 22° C. ([1]; listed as C2) | MLR ± SD, Oil with PGPR, 45° C. ([1]; listed as C2) | measured solution aw of acidified oil [2] | MLR ± SD, Oil with PGPR, 22° C. ([1]; listed as C3) | MLR ± SD, Oil with PGPR, 45° C. ([1]; listed as C3) |
| --- | --- | --- | --- | --- | --- | --- | --- | --- | --- | --- | --- |
| CC(=O)O [Acetic, acetic/ethanoic acid] | >6.52 | >6.52 | 0.81 ± 0.24 | 2.53 ± 0.75 | 0.69 ± 0.19 | 1.42 ± 0.14 | 0.69 | 1.42 |  |  |  |
| CCCC(=O)O [Butyric, butyric/butanoic acid] | 0.55 ± 0.06 | >6.52 | 0.31 ± 0.16 | 1.40 ± 0.31 |  | 0.52 ± 0.13 |  |  |  |  |  |
| CCCCCCCCCC(=O)O [Capric, capric/decanoic acid] | 0.67 ± 0.17 | >6.52 | 0.37 ± 0.06 | 0.57 ± 0.09 | 0.23 ± 0.04 | 0.28 ± 0.09 |  |  |  |  |  |
| CCCCCC(=O)O [Caproic, caproic/hexanoic acid] | 0.72 ± 0.18 | >6.52 | 0.10 ± 0.03 | 0.74 ± 0.48 | 0.21 ± 0.09 | 0.68 ± 0.08 |  |  |  |  |  |
| CCCCCCCC(=O)O [Caprylic, caprylic/octanoic acid] | 0.94 ± 0.26 | >6.52 | 0.56 ± 0.18 | 0.74 ± 0.11 |  | 0.49 ± 0.26 |  |  |  |  |  |
| CCCCCCC(=O)O [Enanthic, enanthic/heptanoic acid] | 0.34 ± 0.26 | >6.52 |  | 0.79 ± 0.22 |  | 0.34 ± 0.03 |  |  |  |  |  |
| O=CO [Formic, formic/methanoic acid] |  |  |  |  |  |  |  |  | 0.51 |  |  |
| CCCCCCCCCCCC(=O)O [Lauric, lauric/dodecanoic acid] | 1.05 ± 0.28 | >6.52 | 0.49 ± 0.12 | 1.02 ± 0.04 | 0.16 ± 0.06 | 0.40 ± 0.17 |  |  |  |  |  |
| CCCCCCCCC(=O)O [Pelargonic, pelargonic/nonanoic acid] | 0.31 ± 0.10 | >6.52 |  | 0.30 ± 0.09 |  | 0.39 ± 0.11 |  |  |  |  |  |
| CCC(=O)O [Propionic, propionic/propanoic acid] | >6.52 | >6.52 | 0.73 ± 0.22 | 1.41 ± 0.66 | 0.89 ± 0.24 | 1.11 ± 0.27 |  |  |  | 0.89 | 1.11 |
| CCCCCCCCCCC(=O)O [Undecylic, undecylic/undecanoic acid] | 0.38 ± 0.09 | >6.52 |  | 0.22 ± 0.18 |  | 0.31 ± 0.03 |  |  |  |  |  |
| CCCCC(=O)O [Valeric, valeric/pentanoic acid] | 0.11 ± 0.05 | >6.52 |  | 1.12 ± 0.16 |  | 0.31 ± 0.02 |  |  |  |  |  |

Reference: patent US20250160324A1, “ACIDIFIED OLEOGEL AND METHODS OF USE” (University of Massachusetts, priority 2023, published 2025)
